Results: patent publication US20080275134A1, “Methods for Treatment of Retinal Degenerative Disease” (University of Washington, priority 2005, published 2008)

Tests used:
[1] = target: T1, RPE65 (Bos taurus, UniProt Q28175); assay: gel filtration of RPE proteins with anti-RPE65 immunoblot; format: binding, bovine; settings: RPE65 found in fractions 23-34
T1 construct: RPE microsomes were solubilized with 10 mM DHPC; from tissue; host or cells: bovine RPE microsomes, DHPC extract
Description: The specificity of Ret-NH2 was further tested by biochemical assays. […] When the RPE microsomes were solubilized with DHPC, the isomerase activity decreased only slightly. Then [^3H]-Ret-NH2 was added to the RPE extract and loaded on a gel filtration column. Proteins were fractionated and eluted between fractions 18 and 60 (FIG. 3A), while the radioactivity was eluted in fractions 36-38. RPE65 was identified by immunoblotting in fractions 23-34 (FIG. 3B). The most abundant proteins in this fraction were identified by mass spectrometry and include glucose phosphate isomerase, D-glyceraldehyde-3-phosphate dehydrogenase, phosphoglycerate mutase, triose phosphate isomerase, enolase, annexin V, calbindin 2, and LRAT. Identification of less abundant proteins is in progress.
RPE microsomes were solubilized with 10 mM DHPC, incubated with 11,12-di[^3H]-all-trans-Ret-NH2 (1 μM), and loaded on a Superdex 200 column equilibrated with Tris/HCl buffer, pH 7.5, containing 4 mM DHPC. Proteins were eluted with a constant flow rate of 0.4 ml/min. The protein and radioactivity levels of 0.4 ml fractions were examined by SDS-PAGE and scintillation counting (A), and immunoblot with anti-RPE65 and anti-LRAT antibodies (B). The star indicates the fraction associated with maximum radioactivity.

[2] = target: T2, LRAT (Bos taurus, UniProt Q9BGL2); assay: LRAT reaction: formation of all-trans-retinyl esters by RPE microsomes; format: biochemical, bovine; settings: all-trans-retinol substrate
T2 construct: Purified RPE microsomes were the source of the enzymes; from tissue; host or cells: bovine retinal pigment epithelium microsomes
T2 sequence (Q9BGL2 1-230): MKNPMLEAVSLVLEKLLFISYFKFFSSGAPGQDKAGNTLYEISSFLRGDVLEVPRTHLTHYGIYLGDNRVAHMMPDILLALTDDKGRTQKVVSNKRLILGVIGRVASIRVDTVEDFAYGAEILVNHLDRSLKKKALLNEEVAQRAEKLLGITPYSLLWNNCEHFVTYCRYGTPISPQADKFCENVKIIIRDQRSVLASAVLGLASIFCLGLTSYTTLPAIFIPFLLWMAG
Description: To test if 11-cis-retinylamine (11-cis Ret-NH2) affects isomerization and esterification, an in vitro assay was employed. In this assay both of the all-trans-retinyl esters formed in the reaction catalyzed by LRAT and 11-cis-retinol production by isomerase were measured (6). Purified RPE microsomes were the source of the enzymes, and all-trans-retinol was the substrate. […] Inhibition of isomerization by Ret-NH2 is not due to binding of CRALBP or competition with 11-cis-retinol for binding to CRALBP. […] An increased concentration of all-trans-retinol lowered the level of inhibition, as illustrated in FIG. 2B. […] Dixon's and Lineweaver-Burk plots in the standard assay conditions yielded Ki=0.1 μM for Ret-NH2 when all-trans-retinol (KM=0.3 μM) was assumed to be a substrate. […] This estimated value reflects the very potent nature of the inhibition by 11-cis-Ret-NH2.
Materials—Fresh bovine eyes were obtained from a local slaughterhouse (Schenk Packing Co., Inc., Stanwood, Wash.). Preparation of bovine RPE microsomes was performed according to previously described methods (Stecher et al., J Biol Chem 274:8577-85, 1999). […]
Reaction conditions for isomerase and LRAT reaction—The isomerase reaction was performed essentially as described previously (Stecher et al., J Biol Chem 274:8577-85, 1999). […] The average values were used and the standard deviations were calculated.

[3] = system: RAR; assay: F9-RARE-lacZ reporter cell line, β-galactosidase activity (DR5 elements); format: cell-based; settings: 24 hours treatment, micromolar concentrations
Source text: 13-cis-RA can isomerize to all-trans-RA and then to 9-cis-RA, both of which are potent ligands of the RA receptor (RAR). 9-cis-RA also binds and activates the retinoid X receptor (RXR). This contributes to the toxicity of the RAR and RXR ligands. It was investigated whether Ret-NH2 can activate these nuclear receptor using reporter-cells as described previously (20). A β-galactosidase activity assay was employed to examine if all-trans-RA, 9-cis-RA, and Ret-NH2 are agonists for these nuclear receptors.
F9-RARE-lacZ cells express endogenous RAR and RXR and were transfected with a construct of lacZ under the control of a minimal promoter and upstream DR5 elements (1). F9-RARE-lacZ cells were treated with different doses of all-trans-RA or Ret-NH2 for 24 hours after which the cells were harvested and the β-galactosidase activity was measured using the soluble substrate o-nitrophenyl β-D-galactopyranoside. The colorless substrate was cleaved by β-galactosidase to yellow colored o-nitrophenol, whose absorbance was measured at 420 nm using a spectrophotometer. The experiment was repeated twice with similar results. The RARE reporter cell line F9-RARE-lacZ (SIL15-RA) was a kind gift from Dr. Michael Wagner (SUNY Downstate Medical Center) and Dr. Peter McCaffery (University of Massachusetts Medical School). […]

[4] = observation of mice for systemic toxicity after oral gavage; format: in vivo; settings: single doses 0.5 to 100 mg/kg

T1 sequence (Q28175 whole entry): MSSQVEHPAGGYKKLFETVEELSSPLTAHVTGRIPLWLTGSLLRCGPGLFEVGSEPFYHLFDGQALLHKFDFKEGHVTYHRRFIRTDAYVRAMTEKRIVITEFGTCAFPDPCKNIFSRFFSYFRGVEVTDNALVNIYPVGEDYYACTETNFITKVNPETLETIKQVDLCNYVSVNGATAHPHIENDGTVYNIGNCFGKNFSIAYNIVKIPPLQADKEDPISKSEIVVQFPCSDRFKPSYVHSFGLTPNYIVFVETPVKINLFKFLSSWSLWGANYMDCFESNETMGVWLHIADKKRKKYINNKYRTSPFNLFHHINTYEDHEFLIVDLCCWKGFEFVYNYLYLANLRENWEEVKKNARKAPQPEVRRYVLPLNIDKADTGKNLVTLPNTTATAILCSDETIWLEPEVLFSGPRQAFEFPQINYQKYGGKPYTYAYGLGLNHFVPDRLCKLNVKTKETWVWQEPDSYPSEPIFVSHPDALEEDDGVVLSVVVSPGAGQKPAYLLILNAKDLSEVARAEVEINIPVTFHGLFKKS

SMILES	binding to RPE65 [1]	formation of all-trans-retinyl esters (LRAT activity) [2]	activation of transcription through RAR (DR5 RARE) [3]	symptoms of systemic toxicity such as weight loss or gastrointestinal disorder [4]
CC1=C(/C=C/C(C)=C/C=C/C(C)=C/CN)C(C)(C)CCC1 [Ret-NH2, Retinylamine]	does not bind	does not inhibit		
CC1=C(/C=C/C(C)=C/C=C/C(C)=C/CN)C(C)(C)CCC1 [all-trans-Ret-NH2, all-trans-retinylamine]			does not activate protein transcription	did not exhibit symptoms of systemic toxicity
